# Results as given in US8648201B2, “Aminopyridine derivatives for treating tumors and inflammatory diseases” (MERCK PATENT GmbH, priority 2009, dated 2014).
# pIC50: −log10 of the molar value.
# Tests used:
# [1] = target: T1, PDK1 (Homo sapiens, UniProt O15530); assay: IC50 PDK1 (cell); format: cell-based
# T1 construct: endogenous in cells; host or cells: commercially available colon carcinoma, ovary, prostate or breast cell lines (none named)
# T1 sequence (O15530 1-556): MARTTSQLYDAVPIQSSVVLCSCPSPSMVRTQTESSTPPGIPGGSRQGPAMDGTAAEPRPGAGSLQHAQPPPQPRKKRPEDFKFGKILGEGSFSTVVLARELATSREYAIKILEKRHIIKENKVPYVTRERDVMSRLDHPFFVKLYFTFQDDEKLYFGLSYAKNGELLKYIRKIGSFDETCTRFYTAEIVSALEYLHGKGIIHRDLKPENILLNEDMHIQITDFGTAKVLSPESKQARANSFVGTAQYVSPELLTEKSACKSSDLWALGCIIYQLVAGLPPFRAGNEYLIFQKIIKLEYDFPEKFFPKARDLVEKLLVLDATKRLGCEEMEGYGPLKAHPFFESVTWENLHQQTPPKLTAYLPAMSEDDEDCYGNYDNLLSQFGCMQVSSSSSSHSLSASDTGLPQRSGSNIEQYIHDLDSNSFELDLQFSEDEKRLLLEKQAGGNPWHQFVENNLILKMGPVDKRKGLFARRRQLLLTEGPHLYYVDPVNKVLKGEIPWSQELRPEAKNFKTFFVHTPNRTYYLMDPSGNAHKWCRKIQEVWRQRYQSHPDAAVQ
# Method: The cells are sown in a suitable cell density in microtitre plates (96-well format) and the test substances are added in the form of a concentration series. After four further days of cultivation in serum-containing medium, the tumour cell proliferation/tumour cell vitality can be determined by means of an Alamar Blue test system. A defined number of cells (for example 2000 cells) per culture/well in a volume of 180 μl of culture medium are sown in microtitre plates (96 well cell-culture plates) using a multichannel pipette. The cells are subsequently cultivated in a CO2 incubator (37° C. and 10% CO2). The test substances are dissolved, for example, in DMSO and subsequently employed in corresponding concentration (if desired in a dilution series) in the cell culture medium. The dilution steps can be adapted depending on the efficiency of the active ingredients and the desired spread of the concentrations. Cell culture medium is added to the test substances in corresponding concentrations. The addition of the test substances to the cells can take place on the same day as the sowing of the cells. To this end, in each case 20 μl of substance solution from the predilution plate are added to the cultures/wells. The cells are cultivated for a further 4 days at 37° Celsius and 10% CO2. In each case, 20 μl of Alamar Blue reagent are added per well, and the microtitre plates are incubated, for example, for a further seven hours in a CO2 incubator (at 37° C. and 10% CO2). The plates are measured in a reader with a fluorescence filter at a wavelength of 540 nm. The plates can be shaken gently immediately before the measurement. The absorbance value of the medium control (no cells and test substances used) is subtracted from all other absorbance values. The controls (cells without test substance) are set equal to 100 percent, and all other absorbance values are set in relation thereto (for example in % of control): Calculation: 100*(value with cells and test substance−value of medium control)/(value with cells−value of medium control) IC50 values (50% inhibition) are determined with the aid of statistics programs, such as, for example, RS1.
# [2] = target: T2, IRAK-1 (Homo sapiens, UniProt P51617); assay: Test for the inhibition of IRAK1 (autophosphorylation, flashplate); format: biochemical; conditions: enzyme
# T2 construct: His6 (N); Dr.Jaekel Pool B, 232Y08C1.IRK
# Outline: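 His6-IRAK1 (5.1 nM) autophosphorylation with 1 μM ATP plus ^33P-ATP, 180 min at 22° C, read as incorporated radioactivity. Blank with 1 μM staurosporin was subtracted and activity expressed as % of no-compound control. IC50 derived from the dilution series.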
# [3] = target: T3, IRAK-4 (Homo sapiens, UniProt Q9NWZ3); assay: IC50 IRAK-4 (cell); format: cell-based
# T3 construct: His6 (N); Dr.Jaekel
# T3 sequence (Q9NWZ3 1-460): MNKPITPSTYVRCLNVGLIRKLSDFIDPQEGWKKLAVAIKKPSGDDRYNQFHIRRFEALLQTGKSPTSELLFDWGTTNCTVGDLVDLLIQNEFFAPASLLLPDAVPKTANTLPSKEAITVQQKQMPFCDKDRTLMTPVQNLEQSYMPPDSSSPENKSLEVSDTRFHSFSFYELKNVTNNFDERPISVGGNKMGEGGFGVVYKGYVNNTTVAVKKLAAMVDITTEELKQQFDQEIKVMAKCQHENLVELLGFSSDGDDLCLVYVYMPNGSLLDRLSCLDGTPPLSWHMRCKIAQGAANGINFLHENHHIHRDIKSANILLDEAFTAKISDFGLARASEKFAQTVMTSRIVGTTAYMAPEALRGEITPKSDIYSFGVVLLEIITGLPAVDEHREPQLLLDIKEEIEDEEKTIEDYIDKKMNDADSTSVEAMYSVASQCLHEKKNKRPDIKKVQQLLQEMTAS
# T2 sequence (P51617 whole entry, species assumed): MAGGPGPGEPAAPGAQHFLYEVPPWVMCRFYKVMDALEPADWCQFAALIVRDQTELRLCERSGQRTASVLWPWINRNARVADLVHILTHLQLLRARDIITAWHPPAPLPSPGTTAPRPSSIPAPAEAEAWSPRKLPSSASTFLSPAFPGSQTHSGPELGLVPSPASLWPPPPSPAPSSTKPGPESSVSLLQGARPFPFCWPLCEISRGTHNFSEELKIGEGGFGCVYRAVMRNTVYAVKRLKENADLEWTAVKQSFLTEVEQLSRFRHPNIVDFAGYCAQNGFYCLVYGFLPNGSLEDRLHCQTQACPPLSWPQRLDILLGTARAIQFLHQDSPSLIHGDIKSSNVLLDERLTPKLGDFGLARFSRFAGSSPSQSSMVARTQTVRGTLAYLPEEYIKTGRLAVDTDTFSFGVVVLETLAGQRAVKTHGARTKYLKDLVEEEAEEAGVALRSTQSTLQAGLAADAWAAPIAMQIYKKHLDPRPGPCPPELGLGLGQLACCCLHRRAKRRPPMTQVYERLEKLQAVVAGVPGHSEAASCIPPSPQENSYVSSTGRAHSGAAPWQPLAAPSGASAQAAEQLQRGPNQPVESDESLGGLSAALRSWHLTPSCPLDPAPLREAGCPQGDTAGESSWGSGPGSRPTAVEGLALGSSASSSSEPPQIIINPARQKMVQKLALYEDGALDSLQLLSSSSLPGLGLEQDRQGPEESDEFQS
Compound,pIC50 [1],pIC50 [2],pIC50 [3]
"CC1CC(=O)NN=C1c1ccc2nc(-c3cc(-c4cnn(C)c4)cnc3N)[nH]c2c1 (racemic) [Compound A1, 6-{2-[2-amino-5-(1-methyl-1H-pyrazol-4-yl)pyridin-3-yl]-3H-benzimidazol-5-yl}-5-methyl-4,5-dihydro-2H-pyridazin-3-one]",5.00 to 7.00,5.00 to 7.00,–
COc1ccc2nc(-c3cc(-c4cnn(C)c4)cnc3N)[nH]c2c1 [Compound A43],< 5.00,5.00 to 7.00,–
"COc1ccc2nc(-c3cc(-c4ccsc4)cnc3N)[nH]c2c1 [Compound A144, 3-(6-methoxy-1H-benzimidazol-2-yl)-5-thiophen-3-ylpyridin-2-ylamine]",< 5.00,5.00 to 7.00,–
Cn1cc(-c2cnc(N)c(-c3nc4cccc(CO)c4[nH]3)c2)cn1 [Compound A52],5.00 to 7.00,5.00 to 7.00,–
"COc1ccc2nc(-c3cc(-c4ccc(C(=O)NC5CCN(C)CC5)s4)cnc3N)[nH]c2c1 [Compound A133, N-(1-Methylpiperidin-4-yl)-5-[6-amino-5-(6-methoxy-1H-benzimidazol-2-yl)pyridin-3-yl]thiophene-2-carboxamide]",< 5.00,7.00 to 9.00,–
"COc1ccc2nc(-c3cc(-c4cnn(C5CCNCC5)c4)cnc3N)[nH]c2c1 [Compound A92, 3-(6-Methoxy-1H-benzimidazol-2-yl)-5-(1-piperidin-4-yl-1H-pyrazol-4-yl)pyridin-2-ylamine]",< 5.00,7.00 to 9.00,5.00 to 7.00
"Cn1cc(-c2cnc(N)c(-c3nc4ccc(C(=O)NCCc5ccc(F)c(F)c5)cc4[nH]3)c2)cn1 [Compound A128, N-[2-(3,4-difluorophenyl)ethyl]-2-[2-amino-5-(1-methyl-1H-pyrazol-4-yl)pyridin-3-yl]-3H-benzimidazole-5-carboxamide]",< 5.00,5.00 to 7.00,–
